Values of other authors in patent publication US20120316171A1, “Tryptophan Hydroxylase Inhibitors for the Treatment of Cancer” (priority 2009, published 2012).

Columns and labels:
[1] = system: cholangiocarcinoma tumors; conditions: xenograft model of cholangiocarcinoma tumors; Alpini et al. 2008
[2] = in vivo

- blood-brain barrier passage [2]: crosses the blood-brain barrier
SMILES: N[C@@H](Cc1ccc(Cl)cc1)C(=O)O (racemic) [pCPA, para-chlorophenylalanine]
- adverse effects of administration (carcinoid patients): unwanted psychological effects
- effect on symptoms of carcinoid syndrome (flushing, diarrhea, valvular damage) (carcinoid patients; reported in the 1960's): alleviated some of those symptoms
- tumor growth [1]: suppressed tumor growth
